Columns and labels:
[1] = test system: Ox42 (MAC 1), TNF and GFAP expression; assay: gp120-mediated inflammation and neuropathy, sciatic nerve Oxycel delivery, spinal cord immunohistochemistry; format: in vivo, rat
Description: Herzberg et al coated the sciatic nerve of rats with oxidized cellulose saturated with gp120 or BSA as control. Persistant hyperalgesia and allodynia were observed throughout a one month testing period in rats treated with gp120. […] This system was utilized to assess the affect of the 8-mer peptide on gp120-mediated inflammation and neuropathy, using Ox42 (MAC 1), TNF and GFAP expression as immunohistochemical markers.
Ox42 (also called MACl) is a general marker for immune/inflammatory activation of the central nervous system (expressed by microglia—when those proliferate and/or extend their processes). If Ox42 marker is present two weeks, and particularly four weeks, after initial neural injury, this indicates a chronic problem. An ongoing inflammatory process in the CNS is correlative of neuropathy. TNF is a cytokine indicating an inflammatory process, and in this case neuronal degeneration. It's expression increases in the CSF of pateints with HIV related neuropathy and is thought to play a role in the degenerative process in these patients (see “role of immune activation and cytokine expression in HIV-1 associated neurologic disease” bay Masaru Yoshioka Walter G Bradley, Paul Shapshak, Isao Nagano, Rene V. Stewart, Ke-Qin Xin, Ashok Srivastava, and Shozo Nakamura in Advance in Neuroimmunology) Vol.5 pp 335-358, 1995. GFAP is a marker for a general activation of astrocytes in the spinal cord and is expressed following damage to the CNS.
Male Sprague Dawley rats weighing 200-225 g were used.
The left sciatic nerve was isolated by blunt dissection, and wrapped with oxidized cellulose (Oxycel, Becton Dickinson) saturated with 250 ul sterile saline containing 400 ng of recombinant gp120 protein alone, or in the presence of 43 ng of the 8-mer L2/HNK-1 mimic peptide (corresponding to a 10×excess […] on a mole-per-mole basis), utilizing the Oxycel delivery method of Eliav et al (Eliav et al (1999) Pain 83(2): 169-82. Eight animals were treated with gp120 alone and eight animals were treated with gp120 and 43 ng peptidomimetic compound.
Animals were euthanized (overdose of xylazine/ketamine) at two and four weeks following surgery and perfused transcardially with ice cold saline followed by 4% paraformaldehyde.
Spinal cords were harvested and cryoprotected overnight at 30% sucrose solution 10 Sections of 40 um thickness from the lumbar enlargement from each animal were thaw mounted onto gelatized slides and stained immunohistochemically for Ox-42 (MACl), TNF and GFAP.

[2] = test system: oligodendrocytes in mixed cerebellar cultures; assay: Oligodendrocyte cultures treated with HIV gp120 and HNK-1 epitope mimic peptide, RIP immunostaining; format: cell-based, rat
Protocol: For these experiments, mixed neural cultures were isolated from rat cerebellum. Briefly, tissue was harvested from postnatal day five rat pups, dissociated and plated on poly-lysine coated 24 well cluster plates in Neural basal medium plus B27 supplement, 1% FBS and penicillin and streptomycin. HNK-1 epitope mimic peptide 8 mer (FLHTRLFV) (SEQ ID NO:8) (1 mM, 100 nM or 10 nM) was added to wells at the time of plating. Three days later, 1 nM gp120 was preincubated with 1 mM, 100 nM or 10 nM HNK-1 peptidomimetic for 1 hour at 37° C. After one hour, gp120 or gp120 plus HNK-1 peptidomimetic was added to mixed cerebellar cultures in sets of 6 replicates. Four days later, cultures were fixed and immunostained with the oligodendrocyte specific antibody marker, RIP. Data was analyzed by counting the number of RIP positive cells in twenty 20×-microscope fields. In addition, the number of RIP positive cells, mature oligodendrocytes with extensive intact membrane sheaths were counted. The cells are depicted in FIG. 20.

[3] = test system: oligodendrocytes in mixed cerebellar cultures; assay: as above; format: cell-based, rat; remark: listed apart in the source
L2-412 antibody [4] = assay: Competition ELISA: binding of mAb L2-412 to immobilized L2/HNK-1 glycolipids; parameters: species or system rat
Protocol: FIG. 2A depicts competition of the L2-412 antibody to immobilized L2/HNK-1 glycolipids by various inhibitors: positive phage (denoted phage 15-15), negative phage (denoted neg. control phage), free peptide (denoted peptide 15-15) and SO3-sugar. L2-412 was preincubated with a stepwise 2-fold dilution series of the free peptide (starting concentration 2.2 mM), SO3-sugar (starting concentration 5 mM), positive phage and negative phage (starting concentration 10^12TUs/ml), and added to the coated glycolipid. After incubation and washing, the bound antibody was detected with HRP anti-rat antibody.
FIG. 2B depicts the percentage inhibition of L2-412 antibody to immobilized L2/HNK-1 glycolipids by various inhibitors. The percentage is calculated for the point in FIG. 2A with the highest concentration of inhibitor. […]
Microtiter plates (Nunc) were coated with the L2/HNK-1 glycolipids (50 μl, 1 μg/ml, dissolved in EtOH) and allowed to dry overnight. While blocking the wells for 2 hours with 0.5% (w/v) fatty-acid-free BSA in PBS, a limiting concentration of ^L2-412, previously determined, was pre-incubated with successive 2-fold dilutions of the inhibitor, starting at a concentration of 2.2 mM for the free peptide, 5 mM for the SO3 sugar and 10^12 positive and negative phages (the negative phages were cloned from the unbound fraction of the first round of screening). […]

HNK-1 antibody = assay: Phage ELISA: binding of phage clones to coated HNK-1 antibody; parameters: species or system mouse; conditions: 100 μl culture supernatant; antibody 1 μg/ml coating
Protocol: (§1) Comparative binding of the HNK-1 selected phage/positive clones versus the L2-412 selected 15-15 phage to bound L2-412 antibody, IgG, HNK-1, and IgM is shown FIG. 14. Supernatant (100 μl) from an overnight culture of bacteria secreting phade were incubated with coated antibodies (100 μl of 1 μg/ml useded for coating) and detected with HRP-coupled anti-phage antibody.
Individual colonies resistant to tetracycline and kanamycin were grown in LB containing 20 μg/mil tetracycline in 96-wells plates (Nunc) overnight at 37° C. (300 μl/well), then centrifuged 10 minutes at 3000 rpm in Jouan centrifuge and the supernatant (100 μl) was incubated for 2 hr in another 96-well plate previously coated with mAbL2-412 (100 μl, μg/l ml overnight at 4° C.) and blocked by incubation for 2 hours with PBS-0.5% (w/v) BSA. After washing 5 times, the binding of the phages was detected by incubation with HRP-conjugated anti-M13 antibody (Pharmacia, Biotech.) for 1 hour at a dilution of 1:2000. The peroxidase reaction was started by the addition of 100 μl developer containing 0.01% hydrogen peroxide and 0.1% (w/v) 2,2′-azino-bis(3-ethylbenzthiazoline-6-sulfonic acid)-diammonium salt (ABTS, Boehringer Mannheim) in HRP buffer (0.1M sodium acetate, 0.05M NaH2PO4, pH adjusted to 4.2 with acetic acid). The absorbance of the colored reaction product was determined at 405 nm in a Multiscan TitertekPlus (Flow, Switzerland). […] Two individual colonies were picked and re-assayed for positivity towards mAb L2-412. Positive single colonies were stored in 40% glycerol at −80° C.

laminin = biological target: T1, laminin (Mus musculus, UniProt P19137); assay: Binding of phage to immobilized laminin; conditions: laminin 10 μg/ml coating; anti-M13 HRP detection
T1 construct: purchased Gibco/BRL
Protocol: FIG. 5 depicts binding of phage 15-15 and control phage UBR2 to immobilized laminin (100 μl of 10 μg/ml used for coating). Bound phage were detected by HRP-conjugated anti-M13 antibody. The results are presented as OD405 vs. relative concentration of the phage preparation (a relative concentration of 100 corresponds to […] phage).

[5] = test system: neural cell adhesion to laminin; conditions: Hall et al. 1995; cited from earlier work
[6] = Hall et al. 1995; cited from earlier work
[7] = test system: embryonic neural cell cultures; assay: Embryonic neural cell cultures treated with L1 and chemotherapeutic agents; format: cell-based; conditions: with cisplatin and vincristin; experiments not detailed
Description: Thus, in view of the recognized and previously described role of HNK-1 expressing cells, natural killer cells, in the surveillance of tumors and virus-infected cells, the carbohydrate epitope mimic peptides can be utilized in enhancing, activating or otherwise modulating the surveillance and clearance of tumors and virus-infected cells. The carbohydrate epitope mimic peptides of the present invention may also have use in the protection of cells, particularly neural cells from chemotherapeutic agents. In experiments not specifically detailed in the Examples herein, the inventors treated embryonic neural cell cultures with a combination of the neural cell adhesion molecule L1 and chemotherapeutic agents, including cisplatin and vincristin. The cell cytopathic effects of the chemotherapeutic agents were reduced in te presence of L1. L1expresses the HNK-1 epitope and a good portion of L1 homophilic binding is HNK-1 mediated. Thus, it is contemplated that the L2/HNK-1 epitope mimic peptide of the present invention can be utilized in the protection of cells, particularly neural cells from chemotherapeutic agents. Untoward cellular cytotoxic effects and problematic symptoms associated therewith are a recognized and limiting side effect of chemotherapy, inherently limiting the dose of the agents which can be administered.

L2-412 antibody [8] = assay: Phage ELISA: binding of phage clones to coated L2-412 antibody; parameters: species or system rat; conditions: 100 μl culture supernatant; antibody 1 μg/ml coating
Protocol: as §1
Individual colonies resistant to tetracycline and kanamycin were grown in LB containing 20 μg/mil tetracycline in 96-wells plates (Nunc) overnight at 37° C. (300 μl/well), then centrifuged 10 minutes at 3000 rpm in Jouan centrifuge and the supernatant (100 μl) was incubated for 2 hr in another 96-well plate previously coated with mAbL2-412 (100 μl, μg/l ml overnight at 4° C.) and blocked by incubation for 2 hours with PBS-0.5% (w/v) BSA. After washing 5 times, the binding of the phages was detected by incubation with HRP-conjugated anti-M13 antibody (Pharmacia, Biotech.) for 1 hour at a dilution of 1:2000. […] The absorbance of the colored reaction product was determined at 405 nm in a Multiscan TitertekPlus (Flow, Switzerland). […]

[9] = biological target: monoclonal antibody L2-412; assay: competition ELISA: L2-412 preincubated with inhibitor (2-fold dilutions from 2.2 mM), then binding to immobilized L2/HNK-1 glycolipid
[10] = gp120 400 ng + 43 ng 8-mer peptide on sciatic nerve, lumbar spinal cord
[11] = gp120 (1 nM) + 10 nM peptide, preincubated
[12] = gp120 (1 nM) + 100 nM peptide, preincubated
[13] = gp120 (1 nM) + 1 uM peptide, preincubated

F L H T R L F V (FLHTRLFV; m13 library) [Consensus peptide]
GFAP immunoreactive area [1, 10]: 8745 pixels | Ox42 immunoreactive area [1, 10]: 1557 pixels | TNF immunoreactive area [1, 10]: 1478 pixels | effect on gp120-induced immunoreactivity ([1]; gp120 + peptide versus Oxycel alone): brings those values back to the same level as with Oxycel alone | cellular morphology of spinal cord sections, light microscopy ([1]; gp120 in combination with the HNK-1 peptide): This cellular morphology was not observed | fluorescence microscopy of RIP positive oligodendrocytes ([2]; 10 nM HNK-1 epitope mimic peptide): Numerous mature RIP positive oligodendrocytes with extensive membrane sheaths were observed | # mature RIP + cells/20 fields ([2]; 100 nM peptide): 16.33 cells/20 fields | Total # RIP + cells/20 fields ([2]; 100 nM peptide): 76.67 cells/20 fields | # mature RIP + cells/20 fields [2, 11]: 8.833 cells/20 fields | # mature RIP + cells/20 fields [2, 12]: 11.17 cells/20 fields | Total # RIP + cells/20 fields [2, 12]: 69.83 cells/20 fields | # mature RIP + cells/20 fields [2, 13]: 12.33 cells/20 fields | effect on mature oligodendrocytes and gp120-associated myelin destruction ([2]; summary of Table 6): increases the number of mature oligodendrocytes and blocks myelin destruction associated with gp 120 treatment | fluorescence microscopy of RIP positive oligodendrocytes ([3]; 1 nM gp120 preincubated with 1 uM HNK-1 epitope mimic peptide): indistinguishable from mature RIP positive cells observed in cultures treated with the HNK-1 epitope mimic peptide only | # mature RIP + cells/20 fields ([3]; 1 uM peptide): 13.33 cells/20 fields | Total # RIP + cells/20 fields ([3]; 1 uM peptide): 62.67 cells/20 fields | # mature RIP + cells/20 fields ([3]; 10 uM peptide): 22.33 cells/20 fields | Total # RIP + cells/20 fields ([3]; 10 uM peptide): 75.83 cells/20 fields | Total # RIP + cells/20 fields [3, 11]: 73.83 cells/20 fields | Total # RIP + cells/20 fields [3, 13]: 76.83 cells/20 fields

F L H T R L F V S D W Y H T (FLHTRLFVSDWYHT; m13 library) [Peptide 15-15]
inhibition of L2-412 binding to immobilized L2/HNK-1 glycolipids (L2-412 antibody [4]; highest inhibitor concentration (free peptide 2.2 mM, SO3-sugar 5 mM, phage 10^12 TUs/ml), no inhibitor = 0%): 30-35%

F L H T R L F V S D W Y H T P [phage 15-15]
binding of phage to coated HNK-1 antibody (HNK-1 antibody): does not bind HNK-1 antibody to a significant extent | binding of phage to immobilized laminin (laminin): bind to laminin in a concentration dependent manner

KGVSSRSYVGCIKNLEISRST
inhibition of HNK-1-mediated neural cell adhesion to laminin [5]: inhibited HNK-1-mediated neural cell adhesion to laminin | binding to the L2/HNK-1 carbohydrate [6]: bound to the L2/HNK-1 carbohydrate in a concentration-dependent manner

L1: neural cell adhesion molecule L1 [Peptide L1]
cell cytopathic effects of chemotherapeutic agents [7]: reduced

S G R G F C C W S N D S A L S [negative phage, reference compound]
inhibitory effect on L2-412 binding to immobilized L2-glycolipids (L2-412 antibody [4]; phage starting at 10^12): did not show this inhibitory effect

S L A P Y S L R I F V L F G G A (SLAPYSLRIFVLFGGA) [Peptide 15H233]
binding of phage to coated L2-412 antibody (L2-412 antibody [8]): bind L2-412 and HNK-1, nearly to the same extent | binding of phage to coated HNK-1 antibody (HNK-1 antibody): bind L2-412 and HNK-1, nearly to the same extent

T R L F R V P V F R L G D F W (TRLFRVPVFRLGDFW) [Peptide 15H92]
binding of phage to coated L2-412 antibody (L2-412 antibody [8]): bind L2-412 and HNK-1, nearly to the same extent | binding of phage to coated HNK-1 antibody (HNK-1 antibody): bind L2-412 and HNK-1, nearly to the same extent

FLHTRLFVSDWYHT [peptide 15-15 (free synthetic peptide …)]
percent inhibition [9]: 30 to 35%

— patent US20030100508A1, “Carbohydrate epitope mimic compounds and uses thereof” (priority 1999, published 2003)
